Results on one compound are retold here after patent publication US20210322443A1 (MAPREG, priority 2015, published 2021).

Assay [1] has as its target Dopaminergic D1 (Homo sapiens, UniProt P21728). As to the kind of experiment: CNS receptor binding assay. Conditions: read-out: % Inhibition of control specific binding.
For assay [2], the target named is Dopaminergic D5 (Homo sapiens, UniProt P21918). Put plainly: CNS receptor binding assay. As to conditions: read-out: % Inhibition of control specific binding.
The target in assay [3] is Dopaminergic D3 (Homo sapiens, UniProt P35462). As to the kind of experiment: CNS receptor binding assay. Conditions: read-out: % Inhibition of control specific binding.
For assay [4], the system named is alcohol self-administration. Put plainly: Operant alcohol self-administration in ethanol dependent and non-dependent rats. It counts as in vivo, Wistar rats. As to the method: Alcohol self-administration in ethanol dependent and non-dependent animals is a well-known and well-characterized animal model for analysis of alcoholism behaviors (Roberts et al. 1999, 2000; Rimondini et al. 2002; O'Dell et al. 2004; Richardson et al. 2008; Gilpin et al. 2009).
Adult male Wistar rats (Charles River, Raleigh, N.C.), weighing 225-275 g at the beginning of the experiments, were housed in groups of 2-3 per cage in a temperature-controlled (22° C.) vivarium on a 12 h/12 h light/dark cycle (lights on at 8:00 PM) with ad libitum access to food and water. All behavioral tests were conducted during the dark phase of the light/dark cycle. All procedures adhered to the National Institutes of Health Guide for the Care and Use of Laboratory Animals and were approved by the Institutional Animal Care and Use Committee of The Scripps Research Institute.
Self-administration sessions were conducted in standard operant conditioning chambers (Med Associates, St. Albans, Vt.). Animals were first trained to self-administer 10% (w/v) ethanol and water solutions until a stable response was maintained. The rats were subjected to an overnight session in the operant chambers with access to one lever (right lever) that delivered water (FR1). Food was available ad libitum during this training. After 1 day off, the rats were subjected to a 2 h session (FR1) for 1 day and a 1 h session (FR1) the next day, with one lever delivering alcohol (right lever). All of the subsequent sessions lasted 30 min, and two levers were available (left lever: water; right lever: alcohol) until stable levels of intake were reached. Upon completion of this procedure, the animals were allowed to self-administer a 10% (w/v) alcohol solution and water on an FR1 schedule of reinforcement (i.e., each operant response was reinforced with 0.1 ml of the solution).
Once a stable baseline of alcohol self-administration was reached, the rats were made dependent by chronic, intermittent exposure to alcohol vapors. […]
Data were analyzed by appropriate mixed factorial ANOVA, followed Newman Keuls post hoc tests

Assay [5] addresses Muscarinic (Cholinergic) M5 (Homo sapiens, UniProt P08912). Put plainly: CNS receptor binding assay. Conditions: [3H] 4-DAMP, Human recombinant (CHO cells), read-out: % Inhibition of control specific binding.
For assay [6], the target named is Noradrenergic β2 (Homo sapiens, UniProt P07550). Put plainly: CNS receptor binding assay. As to conditions: read-out: % Inhibition of control specific binding.
The target in assay [7] is Serotoninergic 5-HT2B (Homo sapiens, UniProt P41595). Put plainly: CNS receptor binding assay. Conditions: read-out: % Inhibition of control specific binding.
Assay [8] concerns the target Serotoninergic Transporter (Homo sapiens, UniProt P31645). Put plainly: CNS receptor binding assay. Conditions: [3H] imipramine, Human recombinant (CHO cells), read-out: % Inhibition of control specific binding.
In assay [9] the target is Dopaminergic D4.4 (Homo sapiens, UniProt P21917). As to the kind of experiment: CNS receptor binding assay. As to conditions: read-out: % Inhibition of control specific binding.
Assay [10] deals with Noradrenergic Transporter (Homo sapiens, UniProt P23975). As to the kind of experiment: CNS receptor binding assay. Conditions: [3H] nisoxetine, Human recombinant (CHO cells), read-out: % Inhibition of control specific binding.
Assay [11] concerns the target Oppioid δ2 (Homo sapiens, UniProt P41143). Put plainly: CNS receptor binding assay. Conditions: [3H] DADLE, Human recombinant (CHO cells), read-out: % Inhibition of control specific binding.
For assay [12], the target named is Cannabinoid CB1 (Homo sapiens, UniProt P21554). As to the kind of experiment: CNS receptor binding assay. Conditions: [3H] CP55940, Human recombinant (CHO cells), read-out: % Inhibition of control specific binding.
The target in assay [13] is Serotoninergic 5-HT5A (Homo sapiens, UniProt P47898). As to the kind of experiment: CNS receptor binding assay. As to conditions: read-out: % Inhibition of control specific binding.
Assay [14] has as its target Dopaminergic D2S (Homo sapiens, UniProt P14416). As to the kind of experiment: CNS receptor binding assay. As to conditions: read-out: % Inhibition of control specific binding.
The test system of assay [15] is NMDA PCP site. Put plainly: CNS receptor binding assay. As to conditions: 10 μM; [3H] TCP; rat cerebral cortex.

Structures are written as SMILES.

Chain of Dopaminergic D5 (P21918 whole entry): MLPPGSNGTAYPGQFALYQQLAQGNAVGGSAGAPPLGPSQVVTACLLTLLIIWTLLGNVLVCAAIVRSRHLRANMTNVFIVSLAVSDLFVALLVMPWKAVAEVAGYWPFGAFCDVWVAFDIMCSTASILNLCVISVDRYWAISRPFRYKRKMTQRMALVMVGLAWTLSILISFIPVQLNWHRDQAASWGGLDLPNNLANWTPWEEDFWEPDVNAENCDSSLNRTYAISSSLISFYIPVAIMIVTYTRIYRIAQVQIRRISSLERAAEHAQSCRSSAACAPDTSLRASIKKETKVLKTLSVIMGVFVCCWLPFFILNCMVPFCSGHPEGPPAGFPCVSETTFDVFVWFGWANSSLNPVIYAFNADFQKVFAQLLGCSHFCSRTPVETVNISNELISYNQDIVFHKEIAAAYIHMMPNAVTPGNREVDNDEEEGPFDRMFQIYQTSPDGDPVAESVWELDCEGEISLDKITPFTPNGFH
Chain of Serotoninergic 5-HT5A (P47898 whole entry): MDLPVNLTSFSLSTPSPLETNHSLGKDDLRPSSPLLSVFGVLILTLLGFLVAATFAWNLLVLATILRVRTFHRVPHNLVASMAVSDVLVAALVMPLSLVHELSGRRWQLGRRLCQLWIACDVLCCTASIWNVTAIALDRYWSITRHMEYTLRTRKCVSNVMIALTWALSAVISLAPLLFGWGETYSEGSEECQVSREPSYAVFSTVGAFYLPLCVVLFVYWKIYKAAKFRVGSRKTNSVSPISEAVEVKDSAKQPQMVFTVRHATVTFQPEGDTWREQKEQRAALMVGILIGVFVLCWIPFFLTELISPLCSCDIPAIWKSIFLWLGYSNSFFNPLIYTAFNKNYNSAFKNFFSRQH
Chain of Dopaminergic D2S (P14416 1-414 isoform P14416-2): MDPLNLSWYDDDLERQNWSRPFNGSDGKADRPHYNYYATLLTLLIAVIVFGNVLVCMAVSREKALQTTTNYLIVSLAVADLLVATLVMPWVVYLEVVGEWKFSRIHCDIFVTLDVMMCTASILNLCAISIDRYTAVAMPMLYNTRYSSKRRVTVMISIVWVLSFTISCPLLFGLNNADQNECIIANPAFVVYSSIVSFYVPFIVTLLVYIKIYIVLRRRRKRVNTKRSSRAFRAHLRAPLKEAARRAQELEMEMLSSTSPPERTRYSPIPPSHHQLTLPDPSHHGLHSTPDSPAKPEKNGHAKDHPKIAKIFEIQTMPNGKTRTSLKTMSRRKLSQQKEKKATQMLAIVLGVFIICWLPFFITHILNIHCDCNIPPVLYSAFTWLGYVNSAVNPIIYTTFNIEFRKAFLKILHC
Chain of Muscarinic (Cholinergic) M5 (P08912 whole entry): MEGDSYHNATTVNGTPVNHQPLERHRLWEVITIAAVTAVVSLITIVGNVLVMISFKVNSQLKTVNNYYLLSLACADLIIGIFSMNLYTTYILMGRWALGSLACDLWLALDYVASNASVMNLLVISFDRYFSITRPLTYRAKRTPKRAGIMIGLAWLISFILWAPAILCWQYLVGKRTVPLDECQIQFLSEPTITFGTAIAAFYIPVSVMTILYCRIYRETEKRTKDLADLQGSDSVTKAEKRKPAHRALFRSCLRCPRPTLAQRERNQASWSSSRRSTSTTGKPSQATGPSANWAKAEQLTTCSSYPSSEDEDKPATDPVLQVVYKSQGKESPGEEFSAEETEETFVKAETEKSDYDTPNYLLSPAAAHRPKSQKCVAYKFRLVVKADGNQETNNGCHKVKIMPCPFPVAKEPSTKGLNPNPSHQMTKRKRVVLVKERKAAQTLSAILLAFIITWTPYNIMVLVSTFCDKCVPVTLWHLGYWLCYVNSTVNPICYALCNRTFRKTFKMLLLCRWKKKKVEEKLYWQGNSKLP
Chain of Noradrenergic β2 (P07550 whole entry): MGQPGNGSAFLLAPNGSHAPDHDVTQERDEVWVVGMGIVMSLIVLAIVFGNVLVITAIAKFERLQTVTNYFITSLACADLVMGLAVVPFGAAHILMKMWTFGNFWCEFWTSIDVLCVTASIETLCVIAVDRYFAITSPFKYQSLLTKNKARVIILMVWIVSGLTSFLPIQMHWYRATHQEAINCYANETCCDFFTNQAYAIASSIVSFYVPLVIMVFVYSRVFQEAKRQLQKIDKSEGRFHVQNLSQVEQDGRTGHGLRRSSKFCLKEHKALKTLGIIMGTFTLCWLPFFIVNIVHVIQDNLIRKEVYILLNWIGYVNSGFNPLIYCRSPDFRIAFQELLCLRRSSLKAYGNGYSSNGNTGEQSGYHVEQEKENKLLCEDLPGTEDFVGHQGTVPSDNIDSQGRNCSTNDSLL
Chain of Oppioid δ2 (P41143 whole entry): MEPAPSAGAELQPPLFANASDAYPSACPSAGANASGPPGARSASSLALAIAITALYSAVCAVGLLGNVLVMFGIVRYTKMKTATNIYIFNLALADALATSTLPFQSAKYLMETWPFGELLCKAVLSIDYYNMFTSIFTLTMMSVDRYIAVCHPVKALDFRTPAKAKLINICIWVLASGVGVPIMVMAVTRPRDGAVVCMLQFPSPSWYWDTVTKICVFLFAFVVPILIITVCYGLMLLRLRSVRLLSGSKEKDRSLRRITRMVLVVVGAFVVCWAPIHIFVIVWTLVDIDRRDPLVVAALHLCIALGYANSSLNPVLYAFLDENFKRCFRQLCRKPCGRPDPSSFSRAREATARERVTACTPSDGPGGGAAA
Chain of Noradrenergic Transporter (P23975 whole entry): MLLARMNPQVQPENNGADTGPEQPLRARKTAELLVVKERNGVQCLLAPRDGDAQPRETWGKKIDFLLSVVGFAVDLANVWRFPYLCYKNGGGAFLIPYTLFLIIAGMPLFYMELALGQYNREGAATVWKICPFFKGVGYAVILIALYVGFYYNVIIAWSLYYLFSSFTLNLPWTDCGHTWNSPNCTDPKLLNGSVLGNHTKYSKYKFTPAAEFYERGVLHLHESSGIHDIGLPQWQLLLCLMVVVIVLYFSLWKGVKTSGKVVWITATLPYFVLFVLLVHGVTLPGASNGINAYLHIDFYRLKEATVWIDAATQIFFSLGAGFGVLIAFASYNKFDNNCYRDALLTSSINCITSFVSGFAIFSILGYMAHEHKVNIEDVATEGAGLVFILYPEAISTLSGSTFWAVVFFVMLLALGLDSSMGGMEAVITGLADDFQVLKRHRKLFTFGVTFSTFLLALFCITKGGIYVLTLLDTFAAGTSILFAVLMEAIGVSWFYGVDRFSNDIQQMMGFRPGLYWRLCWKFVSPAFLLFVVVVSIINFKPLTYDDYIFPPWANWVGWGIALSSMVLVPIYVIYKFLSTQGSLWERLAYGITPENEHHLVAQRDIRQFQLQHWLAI
Chain of Serotoninergic 5-HT2B (P41595 whole entry): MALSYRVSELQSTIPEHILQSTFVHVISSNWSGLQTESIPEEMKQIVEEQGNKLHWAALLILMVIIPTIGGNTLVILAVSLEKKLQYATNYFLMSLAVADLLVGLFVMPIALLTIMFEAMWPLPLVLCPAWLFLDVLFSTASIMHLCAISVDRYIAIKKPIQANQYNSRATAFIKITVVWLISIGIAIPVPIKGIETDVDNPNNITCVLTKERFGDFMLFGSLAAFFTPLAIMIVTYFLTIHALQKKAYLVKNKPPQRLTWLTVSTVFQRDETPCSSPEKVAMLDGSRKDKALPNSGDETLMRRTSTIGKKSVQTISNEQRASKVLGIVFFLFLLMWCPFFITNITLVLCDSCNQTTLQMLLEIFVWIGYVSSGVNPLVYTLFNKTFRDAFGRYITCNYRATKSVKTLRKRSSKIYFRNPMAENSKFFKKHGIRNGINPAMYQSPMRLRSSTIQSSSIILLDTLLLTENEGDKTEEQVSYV
Chain of Dopaminergic D3 (P35462 whole entry): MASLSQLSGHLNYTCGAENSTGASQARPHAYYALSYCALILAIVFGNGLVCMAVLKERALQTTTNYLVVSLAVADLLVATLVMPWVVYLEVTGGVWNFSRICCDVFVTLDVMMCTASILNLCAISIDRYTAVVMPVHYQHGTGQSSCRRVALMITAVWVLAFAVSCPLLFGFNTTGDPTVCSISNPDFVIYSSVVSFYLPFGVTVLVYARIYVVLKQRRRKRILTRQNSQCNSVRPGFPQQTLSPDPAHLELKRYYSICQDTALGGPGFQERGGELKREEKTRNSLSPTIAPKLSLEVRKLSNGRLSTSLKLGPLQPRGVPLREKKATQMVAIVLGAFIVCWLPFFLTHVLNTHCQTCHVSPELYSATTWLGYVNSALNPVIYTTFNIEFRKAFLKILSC
Chain of Dopaminergic D4.4 (P21917 whole entry): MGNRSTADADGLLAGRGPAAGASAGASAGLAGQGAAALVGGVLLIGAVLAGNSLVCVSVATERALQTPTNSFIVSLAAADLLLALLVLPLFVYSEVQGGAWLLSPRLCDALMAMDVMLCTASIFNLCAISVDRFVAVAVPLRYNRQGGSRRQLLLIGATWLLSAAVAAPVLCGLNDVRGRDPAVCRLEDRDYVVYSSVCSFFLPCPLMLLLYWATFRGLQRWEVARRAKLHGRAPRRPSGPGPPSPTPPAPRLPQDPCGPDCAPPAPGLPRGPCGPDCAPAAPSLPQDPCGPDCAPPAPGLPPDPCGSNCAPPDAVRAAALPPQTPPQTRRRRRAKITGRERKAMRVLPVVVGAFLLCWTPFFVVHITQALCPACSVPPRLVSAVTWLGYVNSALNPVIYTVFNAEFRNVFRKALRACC
Chain of Cannabinoid CB1 (P21554 whole entry): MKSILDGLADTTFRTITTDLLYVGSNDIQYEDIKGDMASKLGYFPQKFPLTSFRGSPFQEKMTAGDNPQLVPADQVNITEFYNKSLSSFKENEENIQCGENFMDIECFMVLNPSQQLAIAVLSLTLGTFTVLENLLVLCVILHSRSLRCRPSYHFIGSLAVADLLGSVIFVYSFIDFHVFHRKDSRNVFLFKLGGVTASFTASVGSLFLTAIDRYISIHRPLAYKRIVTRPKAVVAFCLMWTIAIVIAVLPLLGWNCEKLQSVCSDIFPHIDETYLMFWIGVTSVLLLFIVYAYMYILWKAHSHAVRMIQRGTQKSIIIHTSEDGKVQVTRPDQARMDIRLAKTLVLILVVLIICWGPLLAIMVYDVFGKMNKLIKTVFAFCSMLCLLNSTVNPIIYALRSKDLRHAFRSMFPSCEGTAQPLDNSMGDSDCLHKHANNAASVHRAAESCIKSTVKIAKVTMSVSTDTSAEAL

As to `CO[C@H]1CC[C@@]2(C)C(=CC[C@H]3[C@@H]4CC[C@H](C(C)=O)[C@@]4(C)CC[C@@H]32)C1` [MAP4343, 3β-methoxy-pregna-5-ene-20-one], the inhibition at 10 µM in [1] was 2%; in assay [2], -7%; in assay [3] it was 8%; in assay [5], 12%; in assay [6], -4%; in assay [7], -4%. Moreover, the inhibition at 10 µM in assay [8] is 3%; in assay [9], 6%; in assay [10] it was 3%; in [11] it was -3%; in assay [12], 12%; in assay [13], -5%. In assay [14], the inhibition at 10 µM came out at 6%. Besides, the “operant responding for alcohol (alcohol reinforced responses)” value in assay [4] (dependent (vapor) rats, 10 mg/kg sub-cutaneously in sesame oil 24 hours before each test session, p<0.05 from test session 8) is listed as “significantly reduce operant responding for alcohol selectively in the dependent animals”. In [4] (dependent rats, 10 mg/kg sub-cutaneously), the “time of treatment until efficacy was apparent” value is on record as approximately 10 days. Further, the “reduction of excessive alcohol drinking” value in assay [4] (non-dependent (air) rats, 10 mg/kg sub-cutaneously 24 hours before each test session) is reported as “not in non-dependent rats”. Further, in [15], the “% Inhibition of control specific binding” value was −10%.
